Data reported in BigSolDB 2.1.

O=C(Nc1ccccc1)Nc1ccnc(Cl)c1
solubility (mole fraction)
Settings | 278.15 K | 283.15 K | 288.15 K | 293.15 K | 298.15 K | 303.15 K | 308.15 K | 313.15 K | 318.15 K | 323.15 K
in acetone | 0.03 | 0.0317 | 0.0346 | 0.0384 | 0.042 | 0.0456 | 0.0488 | 0.0544 | 0.0606 | 0.0672
in ethanol | 0.0171 | 0.0193 | 0.0218 | 0.0248 | 0.0282 | 0.0325 | 0.0373 | 0.043 | 0.0495 | 0.0563
in methanol | 0.0119 | 0.0135 | 0.0155 | 0.0183 | 0.0219 | 0.0257 | 0.0305 | 0.0366 | 0.0447 | 0.0541
in n-propanol | 0.0171 | 0.0198 | 0.0221 | 0.0257 | 0.0295 | 0.034 | 0.0385 | 0.0453 | 0.0515 | 0.0582
